{"source": "patent US6680177B2", "about": "“Low molecular weight heparin assay, system and reagent therefor” (Cardiovascular Diagnostics, Inc., priority 2001, dated 2004)", "test_system": "citrated whole blood (CWB)", "assay": "Interference testing for Rapidpoint ENOX test in citrated whole blood", "assay_type": "biochemical", "settings": "for EFFECT on ENOX test: CWB; for sensitivity of the ENOX test to the agent: in vitro, citrated whole blood", "note": "Where a SMILES comes first, the peptide text is derived from it. Bridges are numbered along the chain shown (N, C = ends). [ ]: non-standard residue; d: D form. hArg = N=C(N)NCCCC[C@H](N)C(=O)O; Mpa = O=C(O)CCS", "data": [{"smiles": "CC(=O)Oc1ccccc1C(=O)O", "note": "[Aspirin]", "values": [{"measurement": "EFFECT on ENOX test", "setting": "0-300 ug/ml", "value": "No effect at 0-300 ug/ml"}, {"measurement": "sensitivity of the ENOX test to the agent", "value": "insensitive"}]}, {"smiles": "N=C(N)NCCCC[C@@H]1NC(=O)CCSSC[C@@H](C(N)=O)NC(=O)[C@@H]2CCCN2C(=O)[C@H](Cc2c[nH]c3ccccc23)NC(=O)[C@H](CC(=O)O)NC(=O)CNC1=O", "note": "[Eptifibatide] ([Mpa][hArg]GDWPC-NH2; disulfide 1-7)", "values": [{"measurement": "EFFECT on ENOX test", "setting": "0-2600 ng/ml", "value": "No effect at 0-2600 ng/ml"}, {"measurement": "sensitivity of the ENOX test to the agent", "value": "insensitive"}]}, {"smiles": "O=C(c1ccccc1)c1ccc2n1CCC2C(=O)O", "note": "(centres unmarked) [Ketorolac tromethamine]", "values": [{"measurement": "EFFECT on ENOX test", "setting": "0-12 ng/ml", "value": "No effect at 0-12 ng/ml"}]}, {"smiles": "O=[N+]([O-])OCC(CO[N+](=O)[O-])O[N+](=O)[O-]", "note": "[Nitroglycerin]", "values": [{"measurement": "EFFECT on ENOX test", "setting": "0-1000 ng/ml", "value": "No effect at 0-1000 ng/ml"}]}, {"smiles": "CCCCS(=O)(=O)N[C@@H](Cc1ccc(OCCCCC2CCNCC2)cc1)C(=O)O", "note": "[Tirofiban]", "values": [{"measurement": "EFFECT on ENOX test", "setting": "0-5600 ng/ml", "value": "No effect at 0-5600 ng/ml"}, {"measurement": "sensitivity of the ENOX test to the agent", "value": "insensitive"}]}]}
